Results reported in patent US6737383B1, “Herbicidal oxadiazolidines” (priority 1999, dated 2004).

Key:
[1] = tested on: smallflower flatsedge; experiment: Test B flood test smallflower flatsedge; type: in vivo, Cyperus difformis
How it was run: (§1)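 Each value is a visual injury score relative to controls, with 10 meaning complete control and 0 no effect. Evaluation took place twelve to sixteen days after the 2-leaf-stage plants were treated and kept in the greenhouse.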

[2] = tested on: rape; experiment: Test B pre/postemergence rape; type: in vivo, Brassica napus
How it was run: (§2)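 Herbicidal effect was estimated by eye on a ten-point control scale after plants spent twelve to sixteen days in a greenhouse following soil or foliar treatment. Foliar sprays targeted plants at one to four leaves; all doses were formulated in a non-phytotoxic solvent with surfactant.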

[3] = tested on: velvetleaf; experiment: Test B pre/postemergence velvetleaf; type: in vivo, Abutilon theophrasti
How it was run: as §2

[4] = tested on: rice; experiment: Test B flood test rice; type: in vivo, Oryza sativa
How it was run: as §1

[5] = tested on: sugar beet; experiment: Test B pre/postemergence sugar beet; type: in vivo, Beta vulgaris
How it was run: as §2

[6] = tested on: blackgrass; experiment: Test B pre/postemergence blackgrass; type: in vivo, Alopecurus myosuroides
How it was run: as §2

[7] = tested on: purple nutsedge; experiment: Test B pre/postemergence purple nutsedge; type: in vivo, Cyperus rotundus; conditions: Preemergence
How it was run: as §2

[8] = tested on: corn; experiment: Test B pre/postemergence corn; type: in vivo, Zea mays
How it was run: as §2

[9] = tested on: bamyardgrass; experiment: Test B flood test barnyardgrass; type: in vivo, Echinochloa crus-galli
How it was run: as §1

[10] = tested on: pigweed; experiment: Test B pre/postemergence pigweed; type: in vivo, Amaranthus retroflexus
How it was run: as §2

[11] = tested on: morningglory; experiment: Test B pre/postemergence morningglory; type: in vivo, Ipomoea hederacea
How it was run: as §2

[12] = tested on: cocklebur; experiment: Test B pre/postemergence cocklebur; type: in vivo, Xanthium strumarium
How it was run: as §2

[13] = tested on: surinam grass; experiment: Test B pre/postemergence surinam grass; type: in vivo, Brachiaria decumbens
How it was run: as §2

[14] = tested on: wild oat; experiment: Test B pre/postemergence wild oat; type: in vivo, Avena fatua
How it was run: as §2

[15] = tested on: bedstraw; experiment: Test B pre/postemergence bedstraw; type: in vivo, Galium aparine
How it was run: as §2

[16] = tested on: soybean; experiment: Test B pre/postemergence soybean; type: in vivo, Glycine max
How it was run: as §2

[17] = Postemergence, Rate 1000 g/ha, scale 0 to 10 (0 no effect, 10 complete control)
[18] = Rate 125 g/ha, Postemergence section (flood test species), scale 0 to 10, 0 no effect, 10 complete control
[19] = flood test, listed under Postemergence, Rate 250 g/ha, scale 0 to 10, 0 no effect, 10 complete control
[20] = Postemergence, Rate 250 g/ha, scale 0 to 10, 0 no effect, 10 complete control
[21] = Preemergence, Rate 125 g/ha, scale 0 to 10 (0 no effect, 10 complete control)
[22] = Preemergence, Rate 250 g/ha, scale of 0 to 10 where 0 is no effect and 10 is complete control
[23] = Preemergence, Rate 500 g/ha, scale 0 (no effect) to 10 (complete control)
[24] = Rate 125 g/ha, Postemergence, scale 0 to 10, 0 no effect, 10 complete control
[25] = Rate 500 g/ha, Postemergence, 0 to 10 scale (0 no effect, 10 complete control)
[26] = Rate 1000 g/ha, Preemergence, scale 0 to 10 (0 no effect, 10 complete control)
[27] = Rate 500 g/ha, Postemergence section of Table B, 0 to 10 scale (0 no effect, 10 complete control)

SMILES: CC(C)N(C(=O)n1oc(=O)n(-c2cc(Cl)cc(Cl)c2)c1=O)C1=CCOCC1 [Compound 9]
- S. Flatsedge plant response rating [1, 17]: 0
- S. Flatsedge plant response rating [1, 18]: 0
- S. Flatsedge plant response rating [1, 19]: 0
- Rape plant response rating [2, 20]: 0
- Rape plant response rating [2, 17]: 0
- Plant response rating, Rape [2, 21]: 0
- Plant response rating, Rape [2, 22]: 0
- Rape plant response rating [2, 23]: 0
- Rape plant response rating [2, 24]: 0
- Rape plant response rating [2, 25]: 0
- Plant response rating, Rape [2, 26]: 0
- Velvetleaf plant response rating [3, 20]: 0
- Velvetleaf plant response rating [3, 17]: 0
- Plant response rating, Velvetleaf [3, 21]: 0
- Plant response rating, Velvetleaf [3, 22]: 0
- Velvetleaf plant response rating [3, 23]: 0
- Velvetleaf plant response rating [3, 24]: 0
- Plant response rating, Velvetleaf [3, 26]: 0
- Rice plant response rating [4, 17]: 0
- Rice plant response rating [4, 18]: 0
- Rice plant response rating [4, 27]: 0
- Rice plant response rating [4, 19]: 0
- Sugarbeets plant response rating [5, 20]: 0
- Sugarbeets plant response rating [5, 17]: 0
- Plant response rating, Sugarbeets [5, 21]: 0
- Plant response rating, Sugarbeets [5, 22]: 0
- Sugarbeets plant response rating [5, 23]: 0
- Sugarbeets plant response rating [5, 24]: 0
- Plant response rating, Sugarbeets [5, 26]: 0
- Blackgrass plant response rating [6, 20]: 0
- Blackgrass plant response rating [6, 17]: 3
- Plant response rating, Blackgrass [6, 21]: 0
- Plant response rating, Blackgrass [6, 22]: 0
- Blackgrass plant response rating [6, 23]: 0
- Blackgrass plant response rating [6, 24]: 0
- Blackgrass plant response rating [6, 25]: 2
- Plant response rating, Blackgrass [6, 26]: 0
- Plant response rating, Nutsedge ([7]; Rate 125 g/ha, scale 0 to 10 (0 no effect, 10 complete control)): 0
- Plant response rating, Nutsedge ([7]; Rate 250 g/ha, scale of 0 to 10 where 0 is no effect and 10 is complete control): 0
- Nutsedge plant response rating ([7]; Rate 500 g/ha, scale 0 (no effect) to 10 (complete control)): 0
- Plant response rating, Nutsedge ([7]; Rate 1000 g/ha, scale 0 to 10 (0 no effect, 10 complete control)): 0
- Corn plant response rating [8, 20]: 0
- Corn plant response rating [8, 17]: 0
- Plant response rating, Corn [8, 21]: 0
- Plant response rating, Corn [8, 22]: 0
- Corn plant response rating [8, 23]: 0
- Corn plant response rating [8, 24]: 0
- Corn plant response rating [8, 25]: 0
- Plant response rating, Corn [8, 26]: 3
- Barnyardgrass plant response rating [9, 17]: 0
- Barnyardgrass plant response rating [9, 18]: 0
- Barnyardgrass plant response rating [9, 27]: 0
- Barnyardgrass plant response rating [9, 19]: 0
- Redroot pigweed plant response rating [10, 20]: 0
- Redroot pigweed plant response rating [10, 17]: 3
- Plant response rating, Redroot pigweed [10, 21]: 0
- Plant response rating, Redroot pigweed [10, 22]: 0
- Redroot pigweed plant response rating [10, 23]: 0
- Redroot pigweed plant response rating [10, 24]: 0
- Redroot pigweed plant response rating [10, 25]: 3
- Plant response rating, Redroot pigweed [10, 26]: 0
- Morningglory plant response rating [11, 20]: 0
- Morningglory plant response rating [11, 17]: 2
- Plant response rating, Morningglory [11, 21]: 0
- Plant response rating, Morningglory [11, 22]: 0
- Morningglory plant response rating [11, 23]: 0
- Morningglory plant response rating [11, 24]: 0
- Morningglory plant response rating [11, 25]: 0
- Plant response rating, Morningglory [11, 26]: 0
- Cocklebur plant response rating [12, 20]: 0
- Cocklebur plant response rating [12, 17]: 4
- Plant response rating, Cocklebur [12, 21]: 0
- Plant response rating, Cocklebur [12, 22]: 0
- Cocklebur plant response rating [12, 23]: 0
- Cocklebur plant response rating [12, 24]: 0
- Cocklebur plant response rating [12, 25]: 0
- Plant response rating, Cocklebur [12, 26]: 0
- B. signalgrass plant response rating [13, 20]: 0
- B. signalgrass plant response rating [13, 17]: 0
- Plant response rating, B. signalgrass [13, 21]: 0
- Plant response rating, B. signalgrass [13, 22]: 0
- B. signalgrass plant response rating [13, 23]: 0
- B. signalgrass plant response rating [13, 24]: 0
- B. signalgrass plant response rating [13, 25]: 0
- Plant response rating, B. signalgrass [13, 26]: 0
- Wild oats plant response rating [14, 20]: 0
- Wild oats plant response rating [14, 17]: 0
- Plant response rating, Wild oats [14, 21]: 0
- Plant response rating, Wild oats [14, 22]: 0
- Wild oats plant response rating [14, 23]: 0
- Wild oats plant response rating [14, 24]: 0
- Plant response rating, Wild oats [14, 26]: 0
- Bedstraw plant response rating [15, 20]: 0
- Plant response rating, Bedstraw [15, 21]: 0
- Plant response rating, Bedstraw [15, 22]: 0
- Bedstraw plant response rating [15, 23]: 0
- Bedstraw plant response rating [15, 24]: 0
- Bedstraw plant response rating [15, 25]: 0
- Plant response rating, Bedstraw [15, 26]: 0
- Soybean plant response rating [16, 20]: 0
- Soybean plant response rating [16, 17]: 1
- Plant response rating, Soybean [16, 21]: 0
- Plant response rating, Soybean [16, 22]: 0
- Soybean plant response rating [16, 23]: 0
- Soybean plant response rating [16, 24]: 0
- Plant response rating, Soybean [16, 26]: 0
